Measurements taken from patent publication US20260273072A1, “NOVEL PLK1 DEGRADATION INDUCING COMPOUND” (UPPTHERA, INC., priority 2023, published 2026).

Tests used:
Type in all cases: cell-based
NCI-H526 cell line = experiment: Cell viability assay for NCI-H526 cell line (EZ-Cytox); settings: Homo sapiens, NCI-H526, 120 h; H526 cells, 5 days, 3000 nM to 0.46 nM
How it was run: (§1)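 IC50 values are binned (A: <30 nM, B: <50 nM, C: <100 nM, D: <200 nM, E: <400 nM) from EZ-Cytox read-outs. Cells were exposed to compound for 5 days, then shaken 3 min and absorbance taken at […].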

PLK1 = molecular target: T1, PLK1 (Homo sapiens, UniProt P53350); experiment: Luciferase assay for PLK1 in HeLa LgBit (Plk1-HiBit KI) cell line; settings: 300 nM compound, luminescence after 9 hours
T1 construct: endogenous in cells; host or cells: HeLa LgBit (Plk1-HiBit KI): HeLa stably expressing LgBit, with a CRISPR/Cas9 knock-in of HiBit at the endogenous PLK1 locus
How it was run: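 Compounds (300 nM) were added with Endurazine to thymidine-synchronised cells (2 mM, 24 h block, then release and 18 h culture), and luminescence at 470-480 nm was followed live. Cells: HeLa stably expressing LgBit, HiBit knocked into native PLK1 C-terminus. Value: luminescence ratio versus DMSO control.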

MRC-5 cell line = experiment: Cell viability assay for MRC-5 cell line (EZ-Cytox); settings: Homo sapiens, MRC5, 120 h; MRC-5 normal cell line, 5 days, 10000 nM to 1.52 nM; read-out: Activity: IC50 value, cell viability, MRC-5 cell line (Exemplary Compounds)
Description: 4. Cell Viability Assay for MRC-5 Cell Line
(1) Culture of MRC-5 Cell Line
The MRC-5 cell line was purchased from KCLB. Passage of cultured cells was maintained within P15.
(2) Treatment of Compounds of the Present Invention
Then, it was cultured in 37° C. CO2 incubator (Thermo Fisher Scientific) for 5 days.
(3) Cytotoxicity Experiment
CO2 incubator for 4 hours.

NCI-H69 cell line = experiment: Cell viability assay for NCI-H69 cell line (EZ-Cytox); settings: Homo sapiens, NCI-H69, 120 h; H69 cells, 5 days, 3000 nM to 0.46 nM
How it was run: as §1

T1 sequence (P53350 whole entry): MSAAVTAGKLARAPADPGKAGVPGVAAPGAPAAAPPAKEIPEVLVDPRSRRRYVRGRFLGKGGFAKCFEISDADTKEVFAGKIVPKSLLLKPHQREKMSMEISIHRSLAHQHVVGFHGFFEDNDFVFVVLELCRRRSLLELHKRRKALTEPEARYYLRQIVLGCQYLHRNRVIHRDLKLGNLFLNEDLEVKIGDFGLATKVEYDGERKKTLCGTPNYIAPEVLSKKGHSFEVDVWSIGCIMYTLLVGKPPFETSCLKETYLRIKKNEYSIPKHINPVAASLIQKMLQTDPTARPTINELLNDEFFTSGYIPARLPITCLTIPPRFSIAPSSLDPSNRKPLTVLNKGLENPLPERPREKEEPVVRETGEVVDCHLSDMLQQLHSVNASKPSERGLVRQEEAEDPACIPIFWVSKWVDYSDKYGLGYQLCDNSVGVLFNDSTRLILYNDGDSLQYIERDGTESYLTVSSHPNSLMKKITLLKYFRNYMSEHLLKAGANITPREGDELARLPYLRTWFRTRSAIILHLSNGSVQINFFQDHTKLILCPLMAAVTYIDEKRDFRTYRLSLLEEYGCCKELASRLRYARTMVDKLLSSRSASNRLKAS

With `COc1cc(C(=O)NN2CCC(CCN3CCN(c4ccc(NC5CCC(=O)NC5=O)c(F)c4)CC3)CC2)ccc1Nc1ncc2c(n1)N(C(C)C)CC(F)(F)C(=O)N2C` (stereo not shown) [Compound 33, 4-((7,7-difluoro-9-isopropyl-5-methyl-6-oxo-6,7,8,9-tetrahydro-5H-pyrimido[4,5-b][1,4]diazepin-2-yl)amino)-N-(4-(2-(4-(4-((2,6-dioxopiperidin-3-yl)amino)-3-fluorophenyl)piperazin-1-yl)ethyl)piperidin-1-yl)-3-methoxybenzamide] the IC50 (NCI-H526 cell line) was less than 30 nM, the “Activity: ratio of the luminescence value of compound treatment group to DMSO treatment group” value (“Activity: ratio” below) (PLK1) was “++ (++: <0.5)” and the IC50 (MRC-5 cell line) was greater than 10 µM. It also gave an IC50 (NCI-H69 cell line) of less than 30 nM.
For `COc1cc(C(=O)NN2CCC(CCN3CCN(c4ccc(NC5CCC(=O)NC5=O)c(F)c4)CC3)CC2)ccc1Nc1ncc2c(n1)N(C1CCCC1)CC(F)(F)C(=O)N2C` (stereo not shown) [Compound 34, 4-((9-cyclopentyl-7,7-difluoro-5-methyl-6-oxo-6,7,8,9-tetrahydro-5H-pyrimido[4,5-b][1,4]diazepin-2-yl)amino)-N-(4-(2-(4-(4-((2,6-dioxopiperidin-3-yl)amino)-3-fluorophenyl)piperazin-1-yl)ethyl)piperidin-1-yl)-3-methoxybenzamide], the IC50 (NCI-H526 cell line) was less than 30 nM, the “Activity: ratio” value (PLK1) was “++ (++: <0.5)” and the IC50 (MRC-5 cell line) was greater than 10 µM. The IC50 (NCI-H69 cell line) was less than 30 nM.
With `CCN1CC(F)(F)C(=O)N(C)c2cnc(Nc3cc(F)c(C(=O)NN4CCC(CCN5CCN(c6ccc(NC7CCC(=O)NC7=O)c(F)c6)CC5)CC4)cc3OC)nc21` (stereo not shown) [Compound 35, N(4-(2-(4-(4-((2,6-dioxopiperidin-3-yl)amino)-3-fluorophenyl)piperazin-1-yl)ethyl)piperidin-1-yl)-4-((9-ethyl-7,7-difluoro-5-methyl-6-oxo-6,7,8,9-tetrahydro-5H-pyrimido[4,5-b][1,4]diazepin-2-yl)amino)-2-fluoro-5-methoxybenzamide] the IC50 (NCI-H526 cell line) was less than 30 nM, the “Activity: ratio” value (PLK1) was “++ (++: <0.5)” and the IC50 (MRC-5 cell line) was greater than 10 µM. It also gave an IC50 (NCI-H69 cell line) of less than 50 nM.
With `COc1cc(C(=O)NC2CC3(CCN(CC4CCN(c5ccc(NC6CCC(=O)NC6=O)c(F)c5)CC4)CC3)C2)ccc1Nc1ncc2c(n1)N(C1CCCC1)CC(F)(F)C(=O)N2C` (stereo not shown) [Compound 36, 4-((9-cyclopentyl-7,7-difluoro-5-methyl-6-oxo-6,7,8,9-tetrahydro-5H-pyrimido[4,5-b][1,4]diazepin-2-yl)amino)-N-(7-((1-(4-((2,6-dioxopiperidin-3-yl)amino)-3-fluorophenyl)piperidin-4-yl)methyl)-7-azaspiro[3.5]nonan-2-yl)-3-methoxybenzamide] the IC50 (NCI-H526 cell line) was less than 30 nM, the “Activity: ratio” value (PLK1) was “+++ (+++: <0.3)” and the IC50 (MRC-5 cell line) was greater than 10 µM. It also gave an IC50 (NCI-H69 cell line) of less than 50 nM.
`COc1cc(C(=O)NC2CCN(CCC3CCN(c4ccc(NC5CCC(=O)NC5=O)c(F)c4)CC3)CC2)c(F)cc1Nc1ncc2c(n1)N(C(C)C)CC(F)(F)C(=O)N2C` (stereo not shown) [Compound 37, 4-((7,7-difluoro-9-isopropyl-5-methyl-6-oxo-6,7,8,9-tetrahydro-5H-pyrimido[4,5-b][1,4]diazepin-2-yl)amino)-N-(1-(2-(1-(4-((2,6-dioxopiperidin-3-yl)amino)-3-fluorophenyl)piperidin-4-yl)ethyl)piperidin-4-yl)-2-fluoro-5-methoxybenzamide] was tested, and the IC50 (NCI-H526 cell line) was less than 50 nM, the “Activity: ratio” value (PLK1) was “++ (++: <0.5)” and the IC50 (MRC-5 cell line) was greater than 10 µM. For the same compound, the IC50 (NCI-H69 cell line) was less than 100 nM.
`COc1cc(C(=O)NN2CCC(CCN3CCN(c4ccc(N(C)C5CCC(=O)NC5=O)cc4F)CC3)CC2)ccc1Nc1ncc2c(n1)N(C(C)C)CC(F)(F)C(=O)N2C` (stereo not shown) [Compound 38, 4-((7,7-difluoro-9-isopropyl-5-methyl-6-oxo-6,7,8,9-tetrahydro-5H-pyrimido[4,5-b][1,4]diazepin-2-yl)amino)-N-(4-(2-(4-(4-((2,6-dioxopiperidin-3-yl)(methyl)amino)-2-fluorophenyl)piperazin-1-yl)ethyl)piperidin-1-yl)-3-methoxybenzamide] was tested, and the IC50 (NCI-H526 cell line) was less than 30 nM, the “Activity: ratio” value (PLK1) was “+++ (+++: <0.3)” and the IC50 (MRC-5 cell line) was greater than 10 µM. The IC50 (NCI-H69 cell line) was less than 30 nM.
`COc1cc(C(=O)NN2CCC(CCN3CCN(c4cc(OC)c(NC5CCC(=O)NC5=O)cc4F)CC3)CC2)ccc1Nc1ncc2c(n1)N(C(C)C)CC(F)(F)C(=O)N2C` (stereo not shown) [Compound 39, 4-((7,7-difluoro-9-isopropyl-5-methyl-6-oxo-6,7,8,9-tetrahydro-5H-pyrimido[4,5-b][1,4]diazepin-2-yl)amino)-N-(4-(2-(4-(4-((2,6-dioxopiperidin-3-yl)amino)-2-fluoro-5-methoxyphenyl)piperazin-1-yl)ethyl)piperidin-1-yl)-3-methoxybenzamide] was tested, and the IC50 (NCI-H526 cell line) was less than 30 nM, the “Activity: ratio” value (PLK1) was “++ (++: <0.5)” and the IC50 (MRC-5 cell line) was greater than 10 µM. The IC50 (NCI-H69 cell line) was less than 30 nM.
For `COc1cc(C(=O)NN2CCC(CCN3CCN(c4cc(OC)c(NC5CCC(=O)NC5=O)cc4F)CC3)CC2)ccc1Nc1ncc2c(n1)N(C1CCCC1)CC(F)(F)C(=O)N2C` (stereo not shown) [Compound 40, 4-((9-cyclopentyl-7,7-difluoro-5-methyl-6-oxo-6,7,8,9-tetrahydro-5H-pyrimido[4,5-b][1,4]diazepin-2-yl)amino)-N-(4-(2-(4-(4-((2,6-dioxopiperidin-3-yl)amino)-2-fluoro-5-methoxyphenyl)piperazin-1-yl)ethyl)piperidin-1-yl)-3-methoxybenzamide], the IC50 (NCI-H526 cell line) was less than 30 nM, the “Activity: ratio” value (PLK1) was “+++ (+++: <0.3)” and the IC50 (MRC-5 cell line) was greater than 10 µM. For the same compound, the IC50 (NCI-H69 cell line) was less than 30 nM.
For `CCN1CC(F)(F)C(=O)N(C)c2cnc(Nc3ccc(C(=O)NN4CCC(CCN5CCN(c6cc(OC)c(NC7CCC(=O)NC7=O)cc6F)CC5)CC4)cc3OC)nc21` (stereo not shown) [Compound 41, N(4-(2-(4-(4-((2,6-dioxopiperidin-3-yl)amino)-2-fluoro-5-methoxyphenyl)piperazin-1-yl)ethyl)piperidin-1-yl)-4-((9-ethyl-7,7-difluoro-5-methyl-6-oxo-6,7,8,9-tetrahydro-5H-pyrimido[4,5-b][1,4]diazepin-2-yl)amino)-3-methoxybenzamide], the IC50 (NCI-H526 cell line) was less than 30 nM, the “Activity: ratio” value (PLK1) was “++ (++: <0.5)” and the IC50 (MRC-5 cell line) was greater than 10 µM. It also gave an IC50 (NCI-H69 cell line) of less than 30 nM.
`COc1cc(C(=O)NN2CCC(CCN3CCN(c4cc(OC)c(NC5CCC(=O)NC5=O)cc4F)CC3)CC2)c(F)cc1Nc1ncc2c(n1)N(C1CCCC1)CC(F)(F)C(=O)N2C` (stereo not shown) [Compound 42, 4-((9-cyclopentyl-7,7-difluoro-5-methyl-6-oxo-6,7,8,9-tetrahydro-5H-pyrimido[4,5-b][1,4]diazepin-2-yl)amino)-N-(4-(2-(4-(4-((2,6-dioxopiperidin-3-yl)amino)-2-fluoro-5-methoxyphenyl)piperazin-1-yl)ethyl)piperidin-1-yl)-2-fluoro-5-methoxybenz amide] was tested, and the IC50 (NCI-H526 cell line) was less than 30 nM, the “Activity: ratio” value (PLK1) was “++ (++: <0.5)” and the IC50 (MRC-5 cell line) was greater than 10 µM. The IC50 (NCI-H69 cell line) was less than 50 nM.
`COc1cc(C(=O)NN2CCC(CCN3CCN(c4cc(OC)c(NC5CCC(=O)NC5=O)cc4F)CC3)CC2)c(F)cc1Nc1ncc2c(n1)N(C(C)C)CC(F)(F)C(=O)N2C` (stereo not shown) [Compound 43, 4-((7,7-difluoro-9-isopropyl-5-methyl-6-oxo-6,7,8,9-tetrahydro-5H-pyrimido[4,5-b][1,4]diazepin-2-yl)amino)-N-(4-(2-(4-(4-((2,6-dioxopiperidin-3-yl)amino)-2-fluoro-5-methoxyphenyl)piperazin-1-yl)ethyl)piperidin-1-yl)-2-fluoro-5-methoxybenzamide] was tested, and the IC50 (NCI-H526 cell line) was less than 30 nM, the “Activity: ratio” value (PLK1) was “++ (++: <0.5)” and the IC50 (MRC-5 cell line) was greater than 10 µM. It also gave an IC50 (NCI-H69 cell line) of less than 30 nM.
With `COc1cc(N2CCN(CCC3CCN(NC(=O)c4ccc(Nc5ncc6c(n5)N(C5CCCC5)CC(F)(F)C(=O)N6C)c(OC)c4F)CC3)CC2)c(F)cc1NC1CCC(=O)NC1=O` (stereo not shown) [Compound 44, 4-((9-cyclopentyl-7,7-difluoro-5-methyl-6-oxo-6,7,8,9-tetrahydro-5H-pyrimido[4,5-b][1,4]diazepin-2-yl)amino)-N-(4-(2-(4-(4-((2,6-dioxopiperidin-3-yl)amino)-2-fluoro-5-methoxyphenyl)piperazin-1-yl)ethyl)piperidin-1-yl)-2-fluoro-3-methoxybenz amide] the IC50 (NCI-H526 cell line) was less than 50 nM, the “Activity: ratio” value (PLK1) was “+++ (+++: <0.3)” and the IC50 (MRC-5 cell line) was greater than 10 µM. It also gave an IC50 (NCI-H69 cell line) of less than 100 nM.
In the case of `COc1cc(N2CCN(CCC3CCN(NC(=O)c4cc(F)c(Nc5ncc6c(n5)N(C(C)C)CC(F)(F)C(=O)N6C)cc4OC)CC3)CC2)c(F)cc1NC1CCC(=O)NC1=O` (stereo not shown) [Compound 45, 4-((7,7-difluoro-9-isopropyl-5-methyl-6-oxo-6,7,8,9-tetrahydro-5H-pyrimido[4,5-b][1,4]diazepin-2-yl)amino)-N-(4-(2-(4-(4-((2,6-dioxopiperidin-3-yl)amino)-2-fluoro-5-methoxyphenyl)piperazin-1-yl)ethyl)piperidin-1-yl)-5-fluoro-2-methoxybenzamide], the IC50 (NCI-H526 cell line) is reported as less than 200 nM, the “Activity: ratio” value (PLK1) is reported as “++ (++: <0.5)” and the IC50 (MRC-5 cell line) is reported as greater than 10 µM. It also gave an IC50 (NCI-H69 cell line) of less than 200 nM.
